Measured values published in US11685953B2, “Biomarkers and methods of treating cancer” (ASTRAZENECA AB, priority 2015, dated 2023).

Experiments:
pS6 RP (S235/236) = assay: Western blot of pS6 RP (distal readout of PI3Kα activity) in MCF7 parental and CR2.5 cells; format: cell-based, human; details: overnight incubation (FIG. 3)
Description: (§1) Control MCF7 (parental) and MAP3K1-deficient (CR2.5) cell lines cultured in full growth media and treated with either Compound A, Compound B and GDC-0068 as described previously. Following overnight incubation, cell lysates are prepared and analysed by Western blotting using antibodies specific for phosphorylated proteins in the PI3K pathway (FIG. 3).

pPRAS40 = assay: Western blot of pPRAS40 (readout of AKT activity) in MCF7 parental and CR2.5 cells; format: cell-based, human; details: MAP3K1-deficient MCF7 CR2.5 cell line, overnight incubation (FIG. 3)
Description: as §1

pAKT (T308) = assay: Immunoblot of phosphorylated AKT (T308) in PIK3CA mutant breast cancer cell lines; format: cell-based, human
Description: Protocol for Measuring Phosphorylated AKT (T308) in MCF7, T47D Cells.
Low-passage MCF7 and T47D cells were obtained from AZ Cell Bank Collection and cultured as described previously (Avivar-Valderas et al., MCB, 31(17):3616-29, 2011). Wild-type and MCF10A-PI3Kα^H1047R were provided by Horizon Discovery.
After culture, cells were lysed, and protein was analyzed by immunoblotting (IB) (Avivar-Valderas et al., MCB, 31(17):3616-29, 2011). Membranes were blotted using antibodies against MAP3K1 (Santa Cruz) phospho AKT (Thr308) (Cell Signaling Technology) and Vinculin (Sigma). Bound antibodies were detected with horseradish peroxidase (HRP)-conjugated secondary antibodies and chemiluminescence assays (Avivar-Valderas et al., MCB, 31(17):3616-29, 2011).
The effect of MAP3K1 loss of expression on the pharmacological activity of Compound A using the cell-lines generated via siRNA transfection was examined by monitoring the level of inhibition of signalling readouts downstream of PI3Kalpha. A major readout of the pathway is the phosphorylation of AKT at Threonine 308. This phosphorylation is carried out by PDK1, itself activated by PI3K-generated PIP3 (phosphatidyl inositol 3,4,5-trisphosphate). Further pathway readouts are phosphorylation of PRAS40 (Proline-Rich AKT1 Substrate) at Thr246. […]

pS6 RP = pS6 RP staining of 3D-Matrigel acini, MCF7 parental and MCF7 CR2.5; format: cell-based, human; details: 2 μM per FIG. 7B legend
Description: For 3D cultures, cells were plated in commercially available growth factor-reduced Matrigel (Mgel) (BD Biosciences, San Diego, Calif.) and grown (Avivar-Valderas et al., MCB, 31(17):3616-29, 2011). […] 3D-Matrigel MCF10A acinar structures were fixed at day 15 and processed for size measurement and IF microscopy analysis (Avivar-Valderas et al., MCB, 31(17):3616-29, 2011)
ECM-attached cells (located in the outer rim) were positive for pS6 RP in parental acini. As predicted, the number of pS6 RP positive cells was greater in MCF7-CR2.5 (FIG. 7B, grey bars).

MCF7 CR2.5 acini = assay: 3D-Matrigel culture, acinus volume, MAP3K1-deficient MCF7 CR2.5; format: cell-based, human; details: 500 nM every 3 days until day 15; MAP3K1-deficient acini (FIG. 7A left)
[1] = system: MAP3K1-deficient MCF10A-H1047R acini; assay: 3D-Matrigel culture, cleaved caspase 3 (apoptosis), MAP3K1-deficient MCF10A-H1047R acini; format: cell-based; details: 15 days (FIG. 7A right)
Description: (§2) For 3D cultures, cells were plated in commercially available growth factor-reduced Matrigel (Mgel) (BD Biosciences, San Diego, Calif.) and grown (Avivar-Valderas et al., MCB, 31(17):3616-29, 2011). Prior to fixation for IF analysis, acini were treated with 500 nM Compound B every 3 days until the endpoint (day 15). 3D-Matrigel MCF10A acinar structures were fixed at day 15 and processed for size measurement and IF microscopy analysis (Avivar-Valderas et al., MCB, 31(17):3616-29, 2011)
(§3) This might be explained by an increase of cell proliferation or/and reduction of cell death (anoikis in ECM-deprived cells). To test the latter, staining with caspase 3 (anoikis readout) and confocal equatorial sections to analyse lumen formation (main compartment in which anoikis takes place) were carried out.

[2] = system: MCF10A-H1047R CR2.3 cells; assay: IncuCyte proliferation assay, MAP3K1 mutant clone H1047R-CR2.3; format: cell-based
Description: (§4) MCF7 and MCF10A cells were plated in 96 well plates at a density of 2000 cells per well in RPMI media containing 10% FBS or DMEM/F12 media containing 5% of HS (horse serum) respectively. After incubation at 37° C. for 16 hours, concentrations of Compound A, Compound B (30 μM to 117 nM) or AZD2014 (15 μM to 66 nM) were added to the assay plates. Plates were then placed in the IncuCyte and scheduled to be scanned every 6 h for 3 days. Relative percentage of confluence data was normalized to control DMSO treated cells and fitted to a nonlinear regression curve using PRISM (Graphpad).

[3] = system: MCF10A-H1047R parental cells; assay: IncuCyte proliferation assay, MCF10A-H1047R parental cells; format: cell-based; details: 500 nM; MCF10A-H1047R parental cells (FIG. 4, FIG. 6)
Description: as §4

MCF7-CR1.4 cells = assay: IncuCyte proliferation assay, MAP3K1 mutant clone MCF7-CR1.4; format: cell-based, human
MCF7 parental acini = assay: 3D-Matrigel culture, acinus volume, MCF7 parental; format: cell-based, human; details: 500 nM every 3 days until day 15; control cultures (MCF7 parental) (FIG. 7A left)
MCF7 parental cells = assay: IncuCyte proliferation assay, MCF7 parental cells; format: cell-based, human; details: 500 nM; parental MCF7 cells (FIG. 4C-D, FIG. 6B)
Description: as §4

[4] = system: MCF10A-H1047R control acini; assay: 3D-Matrigel culture, cleaved caspase 3 (apoptosis), MCF10A-H1047R control acini; format: cell-based; details: 15 days (FIG. 7A right)
Description: as §2, §3

[5] = MAP3K1-deficient MCF7 cells (CR2.5)

Structure (SMILES)	inhibition of pS6 RP activity (pS6 RP (S235/236); [5])	inhibition of pS6 RP activity (pS6 RP (S235/236); parental MCF7 cells)	inhibition of pPRAS40 (pPRAS40)	phosphorylation of AKT on Thr308 (pAKT (T308); 250 nM for 24 hours, control cells transfected with control siRNA duplex inactive on MAP3K1 mRNA (MCF7, T47D; FIG. 2A))	inhibition of PI3K signalling, effect on pAKT on Thr308 by Western blotting (pAKT (T308); MAP3K1-deficient MCF7 clones CR1.4 and CR2.5 compared to parental MCF7 (FIG. 2B))	number of positive pS6 RP cells, reduction by treatment (pS6 RP; MCF7 CR2.5 acini)	number of positive pS6 RP cells (pS6 RP; parental MCF7 acini)	acini volume, reduction by treatment (MCF7 CR2.5 acini)	increase in number of positive cleaved caspase 3 events [1]	effect on proliferation ([2]; 500 nM, MAP3K1-mutant line derived from MCF10A-H1047R (FIG. 4, FIG. 6))	increase of IC50 for proliferation relative to parental cells ([2]; clone H1047R-CR2.3 relative to MCF10A-H1047R parental cells (FIG. 5))	effect on proliferation [3]	effect on proliferation (MCF7-CR1.4 cells; 500 nM, MCF7-CR1.4 (FIG. 4C-D, FIG. 6B))	increase of IC50 for proliferation relative to parental cells (MCF7-CR1.4 cells; MCF7-CR1.4 relative to parental MCF7 cells (FIG. 5))	acini volume (MCF7 parental acini)	effect on proliferation (growth) (MCF7 parental cells)	number of positive cleaved caspase 3 events [4]
CC(C)NC[C@@H](C(=O)N1CCN(c2ncnc3c2[C@H](C)C[C@H]3O)CC1)c1ccc(Cl)cc1 [GDC-0068, ipatasertib, reference compound]	resistant to all treatments	efficiently inhibit	resistant	–	–	–	–	–	–	–	–	–	–	–	–	–	–
CCn1nc(C2CCN(C(=O)CCO)CC2)nc1-c1cnc(N)c(-c2nnc(C(C)(C)C)o2)n1 [Compound A, 1-(4-(5-(5-amino-6-(5-tert-butyl-1,3,4-oxadiazol-2-yl)pyrazin-2-yl)-1-ethyl-1H-1,2,4-triazol-3-yl)piperidin-1-yl)-3-hydroxypropan-1-one]	resistant to all treatments	efficiently inhibit	resistant	profound reduction	less pronounced	–	–	–	–	–	–	–	–	–	–	–	–
NC1(C(=O)N[C@@H](CCO)c2ccc(Cl)cc2)CCN(c2ncnc3[nH]ccc23)CC1 [Compound B, 4-amino-N-[(1S)-1-(4-chlorophenyl)-3-hydroxy-propyl]-1-(7H-pyrrolo[2,3-d]pyrimidin-4-yl)piperidine-4-carboxamide]	resistant to all treatments	efficiently inhibit	resistant	–	–	reverted	strongly reduced	partially reverted	not significant	no effect	10 fold	able to inhibit the proliferation	no effect	3 fold	significantly reduced	able to reduce growth	significant increase
